# Article PMC7838189, “Natural podophyllotoxin analog 4DPG attenuates EMT and colorectal cancer progression via activation of checkpoint kinase 2” (Cell Death Discovery, 2021)
# What was measured:
# [1] = system: Vimentin–p53 association in SW-620/5-FU-R cells; experiment: Immunoprecipitation of Vimentin and p53; type: cell-based; conditions: 300 nM, 48 h, vs ample p53 in vehicle
# Protocol: Fig. 3 Chk2-dependent role of 4DPG in modulating p53 and repressing Vimentin expression in 5-FU-R cells. A Immunocytochemistry results showing the Vimentin expression level in SW-620/5-FU-R cells treated/transfected with scramble, SiChk2, scramble plus 4DPG, SiChk2 plus 4DPG, vehicle, PV1019, 4DPG, and PV1019 plus 4DPG for 48 h. Scale bars: 50 µm. […] C Matrigel invasion assay results showing invaded HCT-116/5-FU-R and SW-620/5-FU-R cells following 48 h of transient transfection with GFP and GFP-Chk2 plasmid construct. Scale bars: 50 µm. D Quantification of the number of invaded cells per field from the above experimental conditions. n = 3, error bars, mean ± SD; *P < 0.05, ***P < 0.001. E Immunocytochemistry results displaying Vimentin expression levels in HCT-116/5-FU-R and SW-620/5-FU-R cells after 48 h of transient transfection with pCDNA3 and/or HA-Chk2 plasmid construct. Scale bars: 50 µm. F Immunoprecipitation with Vimentin or p53 followed by western blotting analysis of p53 in SW-620/5-FU-R cells treated with vehicle and/or 4DPG (300 nM) for 48 h. […]
# For immunoprecipitation analysis, the previously described procedure was followed with minor modification. […] Following careful washing with lysis buffer, the immunoprecipitates were analyzed by western blotting.
# RBCs = experiment: In vitro hemolysis assay; type: cell-based; conditions: 20 µg/mL (highest tested concentration), 1 h incubation
# Protocol: (§1) Solubility and distribution coefficient are among the major physicochemical properties of a drug that greatly determine its absorption in physiological compartments. […] The distribution coefficient (logD, pH 7.4) of 4DPG was determined to be 0.815 ± 0.19, which indicates the slightly lipophilic nature of the molecule. For administration to animals, the appropriate quantity of 4DPG was formulated in the pre-calculated volume of saline with the help of a solubilizer (Tween-80). Next, to assess the hemocompatibility of 4DPG and establish if the compound could be considered safe for intravenous (i.v.) administration, we performed in vitro hemolysis assay by incubating the RBCs with increasing concentrations of the molecule.
# (§2) The distribution coefficient, solubility, and hemocompatibility of 4DPG was determined adopting our previously described protocol[37],[40]. For hemolysis assay, increasing concentrations (5, 10, and 20 µg/mL) of 4DPG were employed. Distilled water (DW) and PBS were considered as […].
# Supplementary Figure S4. Hemocompatibility and exposure of 4DPG. (A) Representative images of RBC suspension incubated with distilled water (negative control), PBS (positive control), and increasing concentrations of 4DPG for 1 h. (B) Quantification of hemolysis in above treatment conditions by measuring the optical density at 540 nm. […]
# SW-620/5-FU-R cells = experiment: Cellular fractionation and western blotting of p53 and Vimentin; type: cell-based; conditions: 300 nM, 48 h, vs vehicle
# Protocol: Fig. 3 Chk2-dependent role of 4DPG in modulating p53 and repressing Vimentin expression in 5-FU-R cells. A Immunocytochemistry results showing the Vimentin expression level in SW-620/5-FU-R cells treated/transfected with scramble, SiChk2, scramble plus 4DPG, SiChk2 plus 4DPG, vehicle, PV1019, 4DPG, and PV1019 plus 4DPG for 48 h. Scale bars: 50 µm. […] C Matrigel invasion assay results showing invaded HCT-116/5-FU-R and SW-620/5-FU-R cells following 48 h of transient transfection with GFP and GFP-Chk2 plasmid construct. Scale bars: 50 µm. D Quantification of the number of invaded cells per field from the above experimental conditions. n = 3, error bars, mean ± SD; *P < 0.05, ***P < 0.001. E Immunocytochemistry results displaying Vimentin expression levels in HCT-116/5-FU-R and SW-620/5-FU-R cells after 48 h of transient transfection with pCDNA3 and/or HA-Chk2 plasmid construct. Scale bars: 50 µm. F Immunoprecipitation with Vimentin or p53 followed by western blotting analysis of p53 in SW-620/5-FU-R cells treated with vehicle and/or 4DPG (300 nM) for 48 h. G Cytosolic (left panel) and nuclear (right panel) extracts of SW-620/5-FU-R cells treated with vehicle and/or 4DPG (300 nM) for 48 h showing protein expression of Vimentin and p53. Tubulin and lamin expression was considered as endogenous loading controls for cytosolic and nuclear fractions, respectively.
# Moreover, to gain mechanistic insights into how 4DPG-induced activation of Chk2 suppresses EMT and invasiveness, we examined the downstream substrates of Chk2. Tumor suppressor p53 acts as a direct substrate of Chk2 that regulates cell cycle, DNA repair, or apoptosis of cancer cells in response to DNA damage[27],[39]. We attempted to investigate whether there any molecular interaction takes place between Vimentin and p53 in these 5-FU-R cells. Our immunoprecipitation analysis unveiled that 4DPG potentially interrupted the association of Vimentin and p53 in SW-620/5-FU-R cells. […] Since 4DPG disrupted the Vimentin–p53 association, we were curious to see the consequences on p53 expression in various cellular compartments. We separated cytosolic and nuclear fractions of SW-620/5-FU-R cells treated with vehicle and/or 4DPG and conducted western blotting analysis considering relevant loading controls.
# SW-620/5-FU-R cells seeded in 90-mm Petri dishes were treated with vehicle and/or 4DPG for 48 h, following overnight incubation. Cells were then harvested, washed with PBS; cytosolic and nuclear extracts were prepared following our established protocol[37],[56].
# [2] = Distribution coefficient determination; type: physicochemical; conditions: pH 7.4
# Protocol: as §1, §2
# [3] = system: tumor tissues of orthotopic rat colorectal carcinoma; experiment: Western blotting of tumor tissues; type: in vivo, Wistar rats; conditions: 4DPG-treated group vs saline
# Protocol: We adhered to the previously published protocol for western blotting. To sum up, cells were exposed to the respective treatments (mentioned in figure legends). Post-treatment, cells were lysed with cell lysis buffer, and cell lysates were collected after centrifugation. Bradford assay was performed to quantify the protein concentration. Equal amount of protein was taken from each sample to carry out the western blot analysis. SDS-PAGE was employed to separate the proteins that were later transferred onto PVDF membranes (Millipore, Billerica, MA). Next, the membranes were blocked with 5% skim milk and subsequently incubated with the specific primary antibodies (1:1000 dilution), either for 3 h at room temperature or overnight at 4 °C. Later, the blots were washed thoroughly with TBST and probed with the respective secondary antibodies (1:2000 dilution) coupled with horseradish peroxidase for 1 h. Following thorough washing, the membranes were visualized using enhanced chemiluminescence reagent (Millipore) and captured onto Biomax light film (The Eastman Kodak Co., Rochester, NY).
structure (smiles),measurement,setting,value
"COc1cc([C@@H]2c3cc4c(cc3C[C@H]3COC(=O)[C@@H]32)OCO4)cc(OC)c1O[C@@H]1O[C@H](CO)[C@@H](O)[C@H](O)[C@H]1O [4DPG, 4′-demethyl-deoxypodophyllotoxin glucoside]",p53 detected in Vimentin pull-down lysates,[1],negligible p53 expression
same,hemolysis,RBCs,5.8%
same,"augmentation in p53 expression, cytosolic fraction",SW-620/5-FU-R cells,1.65 fold
same,"decrease in Vimentin level, nuclear fraction",SW-620/5-FU-R cells,20 fold
same,"downregulation of Vimentin level, cytosolic fraction",SW-620/5-FU-R cells,2.2 fold
same,"increase in p53, nuclear fraction",SW-620/5-FU-R cells,2.2 fold
same,distribution coefficient (logD),[2],0.815 ± 0.19
same,activation of p53 in tumor tissues,[3],5.82 fold
same,activation of p-Chk2 (Thr68) in tumor tissues,[3],3.54 fold
same,downmodulation of Vimentin in tumor tissues,[3],8.3 fold
same,downmodulation of p-Vimentin (ser38) in tumor tissues,[3],18.2 fold
